Results published in US9951025B2, “Halogenopyrazoles as inhibitors of thrombin” (VERSEON CORPORATION, priority 2013, dated 2018).

What follows are compounds tested against T1, Human thrombin (Homo sapiens, UniProt P00734) (assay: thrombin protease inhibition assay, chromogenic substrate S-2238). Details: 3 nM human thrombin, 125 μM S-2238, 10 min pre-incubation, RT.
T1 construct: purchased Haematologic Technologies Inc
Assay type: biochemical
Procedure: Compounds described herein can be assayed, by a variety of methods known in the art and described herein, for inhibition of biological activity, e.g., protease activity, of a variety of proteins, e.g., thrombin.
The thrombin activity reported herein (e.g., Table A) was obtained as follows. […] Thrombin was assayed in buffer containing 0.05 M Tris (pH 7.4), 0.015 M NaCl and 0.01% PEG-8000. The final concentration of enzyme used was 3 nM thrombin. […] All assays were performed in 96-well microtiter plates at room temperature (RT). […] Inhibitor IC50 values were determined by adding test compound as ten point, three-fold serial dilutions in buffer solution, as known in the art. The plate was read at 10 minutes after substrate addition. The IC50 was calculated by plotting the percent (%) inhibition against compound concentration and fitting the data to a constrained four parameter sigmoidal curve, as known in the art.
For `CC(C)(C)C(=O)n1nc(-c2ccc3c(c2)CCCC3=O)c(F)c1NCc1ccc(Cl)s1` [Compound 29, 6-(5-[(5-chlorothiophen-2-yl)methyl]amino-1-(2,2-dimethylpropanoyl)-4-fluoro-1H-pyrazol-3-yl)-1,2,3,4-tetrahydronaphthalen-1-one], the IC50 was < 100 nM. For `COc1ccccc1C(=O)n1nc(-c2ccc3c(c2)CCCC3O)c(F)c1NCc1ccc(Cl)s1` (stereo not shown) [Compound 30, 6-(5-[(5-chlorothiophen-2-yl)methyl]amino-4-fluoro-1-(2-methoxybenzoyl)-1H-pyrazol-3-yl)-1,2,3,4-tetrahydronaphthalen-1-ol], the IC50 was > 1000 nM. With `COc1ccccc1C(=O)n1nc(-c2ccc3c(c2)CCCC3=O)c(F)c1NCc1ccc(Cl)s1` [Compound 31, 6-(5-[(5-chlorothiophen-2-yl)methyl]amino-4-fluoro-1-(2-methoxybenzoyl)-1H-pyrazol-3-yl)-1,2,3,4-tetrahydronaphthalen-1-one] the IC50 was < 100 nM. `O=C(c1cccc2c1OCCO2)n1nc(C2CCOCC2)c(F)c1NCc1ccc(Cl)s1` [Compound 32, N-[(5-chlorothiophen-2-yl)methyl]-1-(2,3-dihydro-1,4-benzodioxine-5-carbonyl)-4-fluoro-3-(oxan-4-yl)-1H-pyrazol-5-amine] was tested, and the IC50 was < 100 nM. `O=C(c1cccc2c1OCCO2)n1nc(C2CCNCC2)c(F)c1NCc1ccc(Cl)s1` [Compound 33, N-[(5-chlorothiophen-2-yl)methyl]-1-(2,3-dihydro-1,4-benzodioxine-5-carbonyl)-4-fluoro-3-(piperidin-4-yl)-1H-pyrazol-5-amine] was tested, and the IC50 was < 100 nM. For `O=C(c1cccc2c1OCCO2)n1nc(-c2ccccc2)c(F)c1NCc1ccc(Cl)s1` [Compound 34, N-[(5-chlorothiophen-2-yl)methyl]-1-(2,3-dihydro-1,4-benzodioxine-5-carbonyl)-4-fluoro-3-phenyl-1H-pyrazol-5-amine], the IC50 was < 100 nM. In the case of `O=C(c1cccc2c1OCCO2)n1nc(NCc2ccc(Cl)s2)c(F)c1C1CCOCC1` [Compound 35, N-[(5-chlorothiophen-2-yl)methyl]-1-(2,3-dihydro-1,4-benzodioxine-5-carbonyl)-4-fluoro-5-(oxan-4-yl)-1H-pyrazol-3-amine], the IC50 is reported as > 1000 nM. `COc1ccc(C(=O)n2nc(C3CCOCC3)c(F)c2NCc2ccc(Cl)s2)c(OC)c1` [Compound 36, N-[(5-chlorothiophen-2-yl)methyl]-1-(2,4-dimethoxybenzoyl)-4-fluoro-3-(oxan-4-yl)-1H-pyrazol-5-amine] was tested, and the IC50 was < 100 nM. `COc1ccc(C(=O)n2nc(C3CCNCC3)c(F)c2NCc2ccc(Cl)s2)c(OC)c1` [Compound 37, N-[(5-chlorothiophen-2-yl)methyl]-1-(2,4-dimethoxybenzoyl)-4-fluoro-3-(piperidin-4-yl)-1H-pyrazol-5-amine] was tested, and the IC50 was < 100 nM. For `COc1ccc(C(=O)n2nc(-c3ccccc3)c(F)c2NCc2ccc(Cl)s2)c(OC)c1` [Compound 38, N-[(5-chlorothiophen-2-yl)methyl]-1-(2,4-dimethoxybenzoyl)-4-fluoro-3-phenyl-1H-pyrazol-5-amine], the IC50 was < 100 nM. In the case of `COc1ccc(C(=O)n2nc(NCc3ccc(Cl)s3)c(F)c2C2CCOCC2)c(OC)c1` [Compound 39, N-[(5-chlorothiophen-2-yl)methyl]-1-(2,4-dimethoxybenzoyl)-4-fluoro-5-(oxan-4-yl)-1H-pyrazol-3-amine], the IC50 is reported as > 1000 nM. `COc1ccccc1C(=O)n1nc(C2CCN(S(=O)(=O)c3cccc4c(N(C)C)cccc34)CC2)c(F)c1NCc1ccc(Cl)s1` [Compound 40, N-[(5-chlorothiophen-2-yl)methyl]-3-(1-[5-(dimethylamino)naphthalen-1-yl]sulfonylpiperidin-4-yl)-4-fluoro-1-(2-methoxybenzoyl)-1H-pyrazol-5-amine] was tested, and the IC50 was > 1000 nM. `COc1ccccc1C(=O)n1nc(-c2ccccn2)c(F)c1NCc1ccc(Cl)s1` [Compound 43, N-[(5-chlorothiophen-2-yl)methyl]-4-fluoro-1-(2-methoxybenzoyl)-3-(pyridin-2-yl)-1H-pyrazol-5-amine] was tested, and the IC50 was < 100 nM.
